# Target: T1, human GABAA α5β3*γ2s receptors (Homo sapiens, UniProt P18507+P31644)
# T1 construct: expressed in transfected cells
# Test: In vitro inhibition of 3H-flumazenil binding, HEK cells expressing the human GABAA α5β3*γ2S receptor
# Description: When the cultures reach confluency, the DMEM is removed and the cells are washed (10 ml for T175 flasks; 50 ml for roller bottles) once in Dulbecco's Phosphate Buffered Saline (DPBS). Following addition of DPBS to the cultures (10 ml for T175 flasks; 100 ml for roller bottles) for approximately 5 min cells are easily detached from the surface by shaking or tapping the flask gently. The cell suspension is transferred to Falcon tubes and centrifuged at 23,500×g for 10 min at 2° C. The pellet is washed once in 15 ml Tris-citrate buffer (50 mM, pH 7.1) using an Ultra-Turrax homogenizer and centrifuged at 2° C. for 10 min at 27,000×g. The washed pellet is re-suspended in 15 ml Tris-citrate buffer and frozen at −80° C. until the day of the binding experiment.
# On the day of the experiment the cell membrane preparation is thawed and centrifuged at 2° C. for 10 min at 27,000×g.
# Non-specific binding is determined using clonazepam (1 μM, final concentration). […]
# The amount of radioactivity on the filters is determined by conventional liquid scintillation counting using a […]
# where B is the binding in percentage of total specific binding; C is the concentration of test compound; and n is the Hill coefficient. […] The IC50 value is calculated from the concentration response curves by the non-linear regression method using the curve-fitting program GraphPad Prism.
# T1 sequence (P31644 32-462): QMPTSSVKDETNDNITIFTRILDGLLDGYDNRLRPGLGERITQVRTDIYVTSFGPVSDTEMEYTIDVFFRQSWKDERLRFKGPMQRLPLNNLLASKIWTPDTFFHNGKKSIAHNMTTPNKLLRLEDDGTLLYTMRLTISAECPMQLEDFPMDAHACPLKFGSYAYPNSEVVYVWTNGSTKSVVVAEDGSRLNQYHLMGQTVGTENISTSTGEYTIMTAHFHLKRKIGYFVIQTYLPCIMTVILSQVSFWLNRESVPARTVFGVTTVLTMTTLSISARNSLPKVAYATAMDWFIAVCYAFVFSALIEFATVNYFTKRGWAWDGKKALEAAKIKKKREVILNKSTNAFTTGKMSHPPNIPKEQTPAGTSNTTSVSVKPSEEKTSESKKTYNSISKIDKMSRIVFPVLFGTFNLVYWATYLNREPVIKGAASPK
# T1 sequence (P18507 40-467 isoform P18507-1 limits assumed): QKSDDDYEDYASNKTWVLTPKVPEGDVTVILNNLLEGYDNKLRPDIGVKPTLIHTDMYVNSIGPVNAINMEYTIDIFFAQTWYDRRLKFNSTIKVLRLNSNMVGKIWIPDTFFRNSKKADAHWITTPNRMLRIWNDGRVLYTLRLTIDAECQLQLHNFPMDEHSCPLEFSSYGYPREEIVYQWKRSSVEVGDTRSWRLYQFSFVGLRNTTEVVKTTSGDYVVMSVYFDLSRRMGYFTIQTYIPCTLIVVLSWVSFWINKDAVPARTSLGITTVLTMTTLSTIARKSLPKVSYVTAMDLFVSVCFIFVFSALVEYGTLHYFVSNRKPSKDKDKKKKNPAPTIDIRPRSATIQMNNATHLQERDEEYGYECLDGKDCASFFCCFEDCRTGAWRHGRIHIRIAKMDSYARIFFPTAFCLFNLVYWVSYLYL
compound,measurement,value
"NC(=O)c1ccc(OCc2c(C(F)F)nnn2-c2ccc(F)cc2)nn1 [Compound 1, 6-[[5-(difluoromethyl)-3-(4-fluorophenyl)triazol-4-yl]methoxy]pyridazine-3-carboxamide]",Ki,87 nM
